# Patent US6548507B1, “Medical use” (SmithKline Beecham Corporation, priority 1999, dated 2003)
# What was measured:
# mechanical allodynia = assay: CCI mechanical allodynia, Von Frey Hair monofilaments; format: in vivo, rat; conditions: CCI rats, drug administered from day 12, Von Frey Hair monofilaments
# From the text: (§1) Under isoflurane anaesthesia, the common left sciatic nerve of male Random Hooded rats (180-200 g) was exposed at mid-thigh level. Four ligatures of chromic gut (4.0) were tied loosely around the nerve with a 1 mm spacing between each. The wound was then closed and secured with suture clips. The surgical procedure was identical for the sham operated animals except the sciatic nerve was not ligated. The rats were allowed a period of seven days to recover from the surgery before behavioural testing began.
# The presence of mechanical allodynia was assessed using Von Frey Hair monofilaments (range:4.19-84.96 g). The rats were lightly restrained and placed upon a metal grid floor. The monofilaments were applied to the plantar surface of the hindpaws from below the grid. The lowest monofilament to produce a withdrawal was the response recorded.
# [1] = test system: sensory neuronal apoptosis; assay: Apoptosis in L4 and L5 dorsal root ganglia after chronic constriction injury (CCI), Hoechst 33342 staining; format: in vivo, rat; conditions: for number of neurones undergoing apoptosis (FIG. 2): CCI rats, 10 mg/kg, time points day 7, 21 and 30, vs vehicle treated animals; for sensory neuronal apoptosis / glial apoptosis: adult male CCI rats; for sensory neuronal apoptosis: 10 mg/kg dosed day 12 to day 25, at day 30 post surgery; for glial apoptosis: 10 mg/kg dosed day 12 to day 25, results not shown
# Method: Adult male random hooded rats were either chronic constriction injury (CCI) or sham operated at day 0. Dosing with vehicle, 4030W92 (10 mg/kg) or 4082W92 (10 mg/kg) was from day 12 to day 25. At time points 7, 14, 21, 27 and 30 days post surgery animals (n=3 per group except for naives) were sacrificed by exsanguination after behavioural testing as described below. Naive animals were all sacrificed 30 days post surgery. L4 and L5 dorsal root ganglias were removed and placed in a freezing medium for sectioning. Sections (14 μm) were cut using a freezing cryostat (Leica) and placed on poly (L) lysine coated slides. These were post-fixed in 4% paraformaldehyde (Sigma) for 20 minutes, dehydrated through alcohol and kept at −80° until required. On the day of staining, the sections were rehydrated through alcohol and placed in phosphate buffered saline (PBS) for at least 15 minutes. They were incubated with the fluorescent nuclear stain Hoechst 33342 (1 μg/ml) (Sigma) for 4 minutes and then washed extensively with PBS. After drying, the slides were mounted with Vectashield mounting medium (Vector Labs) and coverslipped. The slides could be kept in the dark for up to 6 weeks without fading.
# The sections were studied under the microscope (Leica) at 400× for morphological signs of apoptosis—nuclear condensation, membrane blebbing and presence of apoptotic bodies (Trump 1997 supra). Cells were assigned as neurones or glia depending on their size, location, and general morphology. Four fields from each section were selected at random, the number of apoptotic cells and total number of cells was counted in each and then mean figures for each group were calculated. This analysis was carried out blind. […] Glial apoptosis was unaffected (results not shown).
# [2] = test system: mechanical hypersensitivity; assay: CCI-induced decrease in mechanical paw withdrawal threshold (algesymeter); format: in vivo, rat; conditions: CCI rats, drug administered from day 12, algesymeter
# From the text: as §1
# The effect on Chronic Constriction Injury-induced decrease in mechanical paw withdrawal threshold was measured using an algesymeter (Randall L O, Selitto J J. A method for measurement of analgesic activity on inflamed tissue. Arch. Int. Pharmacodyn. 1957; 61:409-419). In brief, from 7 days post surgery onwards every 2 or 3 days the animals were tested for mechanical hypersensitivity by applying an increasing weight (16 gram per second) to the dorsal surface of each hindpaw until the rat attempted to remove the paw. The increasing weight was halted at this point and the weight recorded and expressed as mechanical paw withdrawal threshold. The maximum weight applied in this model was 250 gram. Drug was administered once the hypersensitivity was maximal which in this case was at day 12.
# [3] = test system: apoptotic neurons in L5 dorsal root ganglions; assay: Neuronal apoptosis after sciatic nerve axotomy in the neonatal rat (TUNEL combined with Hoechst 33342 and immunohistochemistry); format: in vivo; conditions: single pre-emptive injection 10 mg/kg s/c, observed at 24 hours, vs vehicle treated controls
# Method: Newborn animals received a single pre-emptive injection of R(−)-2,4-diamino-5-(2,3-dichlorophenyl)-6-fluoromethyl pyrimidine, substantially free of the corresponding S(+)enantiomer (4030W92) (10 mg/kg, s/c). Twenty minutes later the animals were anaesthetised by hypothermia, the nerve exposed and transected at the mid thigh level. The extent of neuronal and glial apoptosis was investigated using the TUNEL technique combined with Hoechst 33342 (Sigma) and immunohistochemistry. The ipsilateral and contralateral L5 dorsal root ganglions were compared and the 4030W92 treated group was compared to vehicle treated controls and to animals that received an injection of 4030W92 alone, ie. no nerve transection.
# [4] = test system: motorneuronal apoptotic cell death; conditions: after neonatal axotomy; cited from earlier work
SMILES,Von Frey withdrawal threshold (mechanical allodynia) (mechanical allodynia),number of neurones undergoing apoptosis (FIG. 2) [1],sensory neuronal apoptosis [1],glial apoptosis [1],mechanical paw withdrawal threshold [2],number of apoptotic neurons [3],motorneuronal apoptotic cell death [4]
"Nc1nc(N)c(-c2cccc(Cl)c2Cl)c(CF)n1 (atropisomer, axis not shown) [4030W92, R(−)-2,4-diamino-5-(2,3-dichlorophenyl)-6-fluoromethyl pyrimidine]",significantly reversed the reduction in thresholds,decreases,significantly reduced sensory neuronal apoptosis,unaffected,significantly reversed the reduction in thresholds,significant reduction in the number of apoptotic neurons,
"Nc1nc(N)c(-c2cccc(Cl)c2Cl)c(CF)n1 [4082W92, S(+)-2,4-diamino-5-(2,3-dichlorophenyl)-6-fluoromethylpyrimidine]",,decreases,significantly reduced sensory neuronal apoptosis,unaffected,,,
"Nc1nnc(-c2cccc(Cl)c2Cl)c(N)n1 [lamotrigine, 3,5-diamino-6-(2,3-dichlorophenyl)-1,2,4-triazine]",,,,,,,can prevent motorneuronal apoptotic cell death
